This note sets out measurements from US8859512B2, “Anti-viral pyrimidine nucleoside derivatives” (University College Cardiff Consultants Limited, priority 2006, dated 2014).

For series [1], the system named is thymidine-kinase deficient Oka VZV strain in HEL cells. The series can be described thus: Viral plaque formation reduction in HEL cells inoculated with VZV Oka strain. The class given is cell-based, Varicella Zoster virus. Particulars: for antiviral activity (in words): in vitro.
Series [2] can be described thus: Pilot oral pharmacokinetic study in female mice, plasma Compound 1 by HPLC with fluorescence detection. In kind it is in vivo. To be noted: single oral gavage 31.25 mg/kg vs Compound 1 25 mg/kg.

Several values for one entry are separate records, joined by “and”; a condition that tells them apart may be missing. Equal entries are not always repeated. Entries after “also recorded” stand apart in the source; their conditions may differ.

As a reminder, the EC50 is the midpoint of the concentration-response curve.

As for `CCCCCc1ccc(-c2cc3cn(C4CC(O)C(COC(=O)C(N)C(C)C)O4)c(=O)nc3o2)cc1` (stereo not shown) [Compound 5], in series [1] (Human alphaherpesvirus 3, HEL, read-out: EC50 in VZV OKA), the EC50 was 16 nM and 0.008 µg/mL. Also, the “antiviral activity (in words)” value in series [1] is “active; also recorded: comparable in vitro antiviral activity to Compound 1”. Besides, in series [2], the “plasma concentrations of Compound 1 compared to mice receiving Compound 1 (in words)” value was “much higher”.

Take `CCCCCc1ccc(-c2cc3cn(C4CC(O)C(COC(=O)C(N)C(C)C)O4)c(=O)nc3o2)cc1.Cl` (stereo not shown) [Compound 6]: the “antiviral activity (in words)” value in series [1] is “active”.
